Tested on: β cells of DKO mice fed a HFD
Test: MEK162 treatment in vivo of TLR2/TLR4 DKO mice on HFD, histological analysis
Set-up: species or system mouse
Description: For S961 studies, 45-week-old mice under a LFD or HFD were anesthetized and subcutaneously implanted with osmotic pumps (ALZET) filled with insulin receptor antagonist S961 4 or vehicle PBS. Mice were infused with S961 at the dose of 10 nmoles/week for 2 weeks, followed by euthanization and histological analysis of islets. For MEK162 studies, TLR2/TLR4 DKO mice on HFD for 8 weeks were orally gavaged with MEK162 (20 mg/kg body weight, LC laboratories) or vehicle, twice daily for 2 days, followed by euthanization and histological analysis.
For quantification of β cell area, six independent pancreatic tissue sections from 3-4 mice were randomly selected. Total insulin-positive and total pancreas area was measured using the Aperio Imagescope and ImageJ, from which percentage of insulin-positive area was calculated. For quantitation of β cell proliferation, cytoplasmic insulin and nuclear Ki67 double-positive cells were counted as proliferating β cells. Percent of proliferating cells were calculated by dividing the number of Ki67 and insulin-double positive cells by insulin-positive cells of each islet. Islets from 3-4 mice in each group with ˜200-400 β cells in LFD and ˜2,000-7,300 β cells in HFD cohorts were analyzed using the ImageJ software.
Pancreas was fixed in 4% paraformaldehyde, embedded in paraffin, and sectioned by Cornell Histology Core Facility. Ten-micrometer-thick paraffin sections were stained with hematoxylin/eosin. For staining of insulin with immunofluorescence, paraffinembedded sections were rehydrated by sequentially washing in xylene, 100%, 95%, 75% ethanol and water. Then slides were boiled in […] for antigen exposure. After blocking using 5% donkey serum, primary guinea pig anti-rat insulin antibody (Linco, 1:200) were applied and incubated overnight at 4° C., followed with washes and incubation with FITC-conjugated donkey anti-guinea pig IgG (Jackson ImmunoResearch, 1:200). […] Fluorescence Images were captured under a Zeiss LSM710 confocal microscope at Cornell Biotechnology Resource Center Imaging Facility. […]

[1] = DKO mice on HFD for 8 weeks, MEK162 oral 20 mg/kg twice daily for the last 2 days

Cn1cnc2c(F)c(Nc3ccc(Br)cc3F)c(C(=O)NOCCO)cc21 [MEK162]
ERK activation (DKO mice fed a HFD, MEK162 oral 20 mg/kg twice daily for 2 days): blocked
nuclear entry of Cyclin D2 [1]: abolished
β cell proliferation (Ki67-positive β cells) [1]: abolished

From US9957287B2, “Methods and compositions to treat type-1 and type-2 diabetes” (CORNELL UNIVERSITY, priority 2016, dated 2018)
